assay: Inhibition of HCV genotype 1 polymerase; parameters: species or system Hepacivirus hominis

SMILES | IC50
O=c1c(C2=NS(=O)(=O)c3ccccc3N2)c(O)c2ccccc2n1NCC1CCC1 | 278 nM
CC(C)CCn1c(=O)c(C2=NS(=O)(=O)c3cc(NS(=O)(=O)NC(=O)OCC(=O)O)ccc3N2)c(O)c2cccnc21 | 50 nM
COc1ccccc1CNS(=O)(=O)Nc1ccc2c(c1)S(=O)(=O)N=C(c1c(O)c3cccnc3n(CCC(C)C)c1=O)N2 | 57 nM
CC(C)CCn1c(=O)c(C2=NS(=O)(=O)c3cc(NS(=O)(=O)NC(=O)OCCN)ccc3N2)c(O)c2cccnc21 | 21 nM
CCCC(CCC)Nn1c(=O)c(C2=NS(=O)(=O)c3ccccc3N2)c(O)c2ccccc21 | 2240 nM
COC(=O)NS(=O)(=O)Nc1ccc2c(c1)S(=O)(=O)N=C(c1c(O)c3cccnc3n(CCC(C)C)c1=O)N2 | 63 nM
CC(C)CCn1c(=O)c(C2=NS(=O)(=O)c3cc(NS(=O)(=O)NCCC(N)=O)ccc3N2)c(O)c2cccnc21 | 20 nM
O=c1c(C2=NS(=O)(=O)c3ccccc3N2)c(O)c2ccccc2n1NCc1ccco1 | 3260 nM
CC(C)CCn1c(=O)c(C2=NS(=O)(=O)c3cc(NS(=O)(=O)N4CCCCC4)ccc3N2)c(O)c2cccnc21 | 51 nM
CC(C)CCn1c(=O)c(C2=NS(=O)(=O)c3ccccc3N2)c(O)c2cccnc21 | 810 nM
CC(C)CCn1c(=O)c(C2=NS(=O)(=O)c3cc(OCC(N)=O)ccc3N2)c(O)c2cccnc21 | 46 nM
CC(C)CCn1c(=O)c(C2=NS(=O)(=O)c3cc(NS(=O)(=O)NCCN)ccc3N2)c(O)c2cccnc21 | 10 nM
Cc1cccc(CNn2c(=O)c(C3=NS(=O)(=O)c4ccccc4N3)c(O)c3ccccc32)c1 | 8210 nM
C=CCOC(=O)NS(=O)(=O)Nc1ccc2c(c1)S(=O)(=O)N=C(c1c(O)c3cccnc3n(CCC(C)C)c1=O)N2 | 88 nM
COc1cccc2c1NC(c1c(O)c3cccnc3n(Cc3ccccc3)c1=O)=NS2(=O)=O | 18000 nM

Continued, values first:

IC50 | SMILES
1130 nM | COc1ccc2c(c1)S(=O)(=O)N=C(c1c(O)c3cccnc3n(CCC(C)C)c1=O)N2
5800 nM | O=c1c(C2=NS(=O)(=O)c3ccccc3N2)c(O)c2cccnc2n1Cc1ccccc1
121 nM | CC(C)CCn1c(=O)c(C2=NS(=O)(=O)c3cc(NS(=O)(=O)N(C)C(=O)OCc4ccccc4)ccc3N2)c(O)c2cccnc21
115 nM | CC(C)CCn1c(=O)c(C2=NS(=O)(=O)c3cc(NS(=O)(=O)Nc4cccc(C(=O)O)c4)ccc3N2)c(O)c2cccnc21
24 nM | CC(C)CCn1c(=O)c(C2=NS(=O)(=O)c3cc(NS(=O)(=O)N4CCC4)ccc3N2)c(O)c2cccnc21
5000 nM | CC(C)CCn1c(=O)c(C2=NS(=O)(=O)c3cc(OCC(=O)OC(C)(C)C)ccc3N2)c(O)c2cccnc21
43 nM | CC(C)CCn1c(=O)c(C2=NS(=O)(=O)c3cc(NS(=O)(=O)Nc4cccc(C(=O)NCC(N)=O)c4)ccc3N2)c(O)c2cccnc21
941 nM | CC(C)CNn1c(=O)c(C2=NS(=O)(=O)c3ccccc3N2)c(O)c2ccccc21
61 nM | CCOC(=O)COC(=O)NS(=O)(=O)Nc1ccc2c(c1)S(=O)(=O)NC(c1c(O)c3cccnc3n(CCC(C)C)c1=O)=N2
189 nM | CC(C)CCn1c(=O)c(C2=NS(=O)(=O)c3cc(NS(=O)(=O)NC(=O)OCCCl)ccc3N2)c(O)c2cccnc21
8 nM | CC(C)CCn1c(=O)c(C2=NS(=O)(=O)c3cc(NS(=O)(=O)C(C)C)ccc3N2)c(O)c2cccnc21
6200 nM | O=c1c(C2=NS(=O)(=O)c3cccc(Br)c3N2)c(O)c2cccnc2n1Cc1ccccc1
41 nM | CC(C)CCn1c(=O)c(C2=NS(=O)(=O)c3cc(NS(=O)(=O)Nc4ccccc4)ccc3N2)c(O)c2cccnc21
35800 nM | O=c1c(C2=NS(=O)(=O)c3ccccc3N2)c(O)c2ccccc2n1NCc1nccs1
951 nM | CCCCNn1c(=O)c(C2=NS(=O)(=O)c3ccccc3N2)c(O)c2ccccc21
120 nM | CC(C)CCn1c(=O)c(C2=NS(=O)(=O)c3cc(NCC#N)ccc3N2)c(O)c2cccnc21
1040 nM | O=c1c(C2=NS(=O)(=O)c3ccccc3N2)c(O)c2ccccc2n1NCc1cccc(Br)c1
6120 nM | Cc1ccccc1CNn1c(=O)c(C2=NS(=O)(=O)c3ccccc3N2)c(O)c2ccccc21
